From publication PMC10975543, “Redox Reactivity of Nonsymbiotic Phytoglobins towards Nitrite” (Molecules, 2024)

Biological target: T1, AtHb3 (Arabidopsis thaliana, UniProt Q67XG0)
T1 construct: gene GLB3; recombinant in E. coli BL21(DE3), N-terminal 8xHis-MBP tag, TEV cleaved; class 3 truncated Hb; ferric (met) heme form
T1 sequence (Q67XG0 1-175): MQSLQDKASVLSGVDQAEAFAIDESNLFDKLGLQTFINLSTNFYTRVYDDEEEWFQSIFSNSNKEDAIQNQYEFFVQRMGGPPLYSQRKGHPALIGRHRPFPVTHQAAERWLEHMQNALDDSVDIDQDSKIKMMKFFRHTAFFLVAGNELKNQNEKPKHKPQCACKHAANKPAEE
Test: UV-vis titration of the Soret band at […] nm
Type: binding

In the case of `O=NO` [nitrite], the Kd is reported as 1500 ± 500 µM.
